Calls of active or inactive are those of the source. Cut-off read from the data, not from the text of the source, for most assays here: actives have a measured EC50 and inactives only a lower limit.

Our source for the EC50 and AC50 values is ChEMBL document CHEMBL1201862, “PubChem BioAssay data set” (2004).

The first test has as its target T1, Heat shock factor protein 1 (Mus musculus, UniProt P38532).
T1 sequence (P38532 whole entry): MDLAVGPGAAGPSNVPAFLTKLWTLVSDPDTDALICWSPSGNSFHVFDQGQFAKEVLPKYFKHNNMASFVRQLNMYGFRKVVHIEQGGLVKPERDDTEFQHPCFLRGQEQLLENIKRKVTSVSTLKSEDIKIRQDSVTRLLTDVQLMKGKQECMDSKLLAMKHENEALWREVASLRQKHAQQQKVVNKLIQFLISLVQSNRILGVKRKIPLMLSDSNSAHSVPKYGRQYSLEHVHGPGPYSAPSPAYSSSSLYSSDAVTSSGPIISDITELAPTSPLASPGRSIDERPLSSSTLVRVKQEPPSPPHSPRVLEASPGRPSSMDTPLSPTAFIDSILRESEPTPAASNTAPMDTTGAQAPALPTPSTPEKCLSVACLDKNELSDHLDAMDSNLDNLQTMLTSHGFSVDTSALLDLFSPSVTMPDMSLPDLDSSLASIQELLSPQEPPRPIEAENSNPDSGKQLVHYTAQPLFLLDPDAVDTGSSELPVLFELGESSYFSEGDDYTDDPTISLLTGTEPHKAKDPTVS
Nature of the test: decrease of HSF1-responsive luciferase luminescence – cell-based, NIH3T3, dose retest, confirmation (AID 2382).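 Note: NIH3T3 fibroblasts with HSF1-driven luciferase reporter stressed by proteasome inhibitor MG132; luminescence from HSF1-driven luciferase expression after 8 hours of MG132 stress.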
Details: not given
Format: functional.
As to `CC(C)(C)c1ccc(/C=N/N2C(=O)CSC2=S)cc1`, the 50% effective concentration (EC50) is 44.1 µM (active). In the case of `COc1cccc(CC2(CO)CCN(S(=O)(=O)c3ccc(OC)cc3OC)CC2)c1`, the concentration for a half-maximal effect (EC50) is on record as > 195 µM (not active).

For the compound `CCCCNC(=O)c1ccc(Cn2c(=S)[nH]c3c([nH]c4ccc(OC)cc43)c2=O)cc1`, the EC50 was 3.02 µM (active).

In the case of `N#C/C(=C/c1ccc(Br)o1)C(N)=O`, the half-maximal effective concentration (EC50) is listed as > 195 µM (not active). Consider `O=C(Nc1cnn(Cc2ccc(F)cc2)c1)c1cc(-c2ccco2)on1`, for which the concentration for a half-maximal effect (EC50) is on record as > 195 µM (not active).

For `O=C(O)C1CCCCC1C(=O)Nc1cccc(C(=O)N2CCCCC2)c1` (configuration not stated), the 50% effective concentration (EC50) is > 195 µM (not active). On the same count and under the same terms, the value for `CC(=O)c1ccc(OCC(O)CN2CCN(Cc3ccc4c(c3)OCO4)CC2)cc1` (configuration not stated) was > 195 µM (not active); that for `CC1CN(C(=O)C(C)N2C(=O)c3ccccc3C2=O)CC(C)O1` (configuration not stated) was 33.4 µM (active); that for `Cc1ccccc1NC(S)=NNC(=O)c1csc2c1CCC(C)C2` (configuration not stated) was < 0.16 µM (active). Same read-out and setting: with `CCc1ccccc1N(CC(=O)NCc1ccco1)C(=O)CCC(=O)Nc1ccccn1` the figure was 35.8 µM (active); with `O=C(COC(=O)c1cccs1)c1ccc2c(c1)OCCO2`, 0.213 µM (active).

The next test deals with H4. Nature of the test: Luminescence Cell-Based Dose Response HTS to Identify Activators of 5'UTR Stem-Loop Driven Prion Protein mRNA Translation in H4 Neuroglioblastoma Cells. [Related pubchem assays: 1829 (Project Summary), 1814 (Primary HTS)]. Format: functional. The settings on record: Homo sapiens.
Turning to `CC(=O)Oc1ccc(C)cc1-n1nc2ccccc2n1`, the EC50 is 2.63 µM (active).

The target in a further test is Paired box protein Pax-8 (Homo sapiens, UniProt Q06710). Nature of the test: PAX8 transcriptional activity inhibition in RMG-I – RMG-I cells, luciferase, cherry-pick, dose response (AID 687027).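 Note: luciferase reporter driven by Pax8 target thyroperoxidase promoter measured by SteadyGlo luminescence.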 Format: functional, cell-based.
Paired box protein Pax-8, sequence (Q06710 whole entry): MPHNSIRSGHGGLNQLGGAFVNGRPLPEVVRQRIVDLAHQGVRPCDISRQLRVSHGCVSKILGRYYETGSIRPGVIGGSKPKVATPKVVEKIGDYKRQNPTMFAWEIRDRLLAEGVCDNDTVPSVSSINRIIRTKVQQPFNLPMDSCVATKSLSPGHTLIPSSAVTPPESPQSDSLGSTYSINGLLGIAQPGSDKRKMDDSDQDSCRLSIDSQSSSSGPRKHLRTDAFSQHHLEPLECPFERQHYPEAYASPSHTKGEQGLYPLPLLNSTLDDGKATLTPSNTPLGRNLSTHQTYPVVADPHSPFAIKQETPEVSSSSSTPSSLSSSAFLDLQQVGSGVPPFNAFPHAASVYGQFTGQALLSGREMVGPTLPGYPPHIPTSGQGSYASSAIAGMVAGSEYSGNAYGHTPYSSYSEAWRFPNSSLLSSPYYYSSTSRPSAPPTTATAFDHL
Details: not given
In the case of `CSCCC(c1nnnn1-c1ccc2c(c1)OCCO2)N1CCC(n2c(O)nc3ccccc32)CC1` (configuration not stated), the AC50 is 2.14 µM (active).

Turning to `O=C(c1ccco1)N1N=C(c2ccc(Br)cc2)CC1(O)C(F)(F)F` (configuration not stated), the AC50 was 27.1 µM (active).

Regarding `C[C@@H]1CCCCO[C@H](CN(C)CC2CCCCC2)[C@H](C)CN([C@H](C)CO)C(=O)c2cc(NS(=O)(=O)c3ccc(Cl)cc3)ccc2O1`, the half-maximal activity concentration (AC50) was 5.21 µM (active). On the same count and under the same terms, the value for `CC(C)OCCCNC(=O)c1cccc(NC(=O)c2ccccc2)c1` was 41.6 µM (active).

System in another test: not listed separately
As to the kind of experiment: alpha-synuclein stem-loop luciferase translation blockers – H4 neuroglioma cells, luminescence, confirmation (AID 1988). Format: functional, cell-based.
Details: not given
In the case of `CCOc1ccc(S(=O)(=O)N2CCC(C(=O)N3CCOCC3)CC2)cc1C`, the EC50 is > 120 µM (not active). On the same count and under the same terms, with `Cc1ccc(NC(=O)CN(C)C(S)=NC2CC2)cc1` the figure was > 120 µM (not active). Same read-out and setting: the value for `COc1ccc(/C=N/NC(=O)c2ccncc2)cc1COc1ccc(NC(C)=O)cc1` was > 120 µM (not active). On the same count and under the same terms, the value for `COc1cc2c3c(c1OC)C1(C=CC(=NO)C=C1)CC3N(C(C)=O)CC2` (configuration not stated) was > 120 µM (not active).

The next test relates to INS1. Nature of the test: INS-1E survival protection against cytokine death – cell-based, luminescence, retest, dose response (AID 449756).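 Note: cell death triggered by IL-1 beta plus TNF-alpha plus IFN-gamma mixture; protective hits raise ATP signal compared with cytokine alone wells.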 The settings on record: Rattus norvegicus. Format: functional.
On to `CCCCNC(=O)c1ccc(Cn2c(=S)[nH]c3c([nH]c4ccc(OC)cc43)c2=O)cc1`, for which the concentration at half-maximal activity (AC50) was 5.01 µM (active).

System in another test: not listed separately
As to the kind of experiment: Luminescence Cell-Based Dose Response HTS to Identify Inhibitors of 5'UTR Stem-Loop Driven Prion Protein mRNA Translation in H4 Neuroglioblastoma Cells. [Related pubchem assays: 1827 (Project Summary), 1813 (Primary HTS)]. Format: functional.
Details: not given
Turning to `CCOc1ccc(S(=O)(=O)N2CCC(C(=O)N3CCOCC3)CC2)cc1C`, the EC50 is reported as > 120 µM (not active). Consider `Cc1ccc(NC(=O)CN(C)C(S)=NC2CC2)cc1`, for which the EC50 is > 120 µM (not active). Turning to `COc1ccc(/C=N/NC(=O)c2ccncc2)cc1COc1ccc(NC(C)=O)cc1`, the EC50 is on record as > 120 µM (not active). With `COc1cc2c3c(c1OC)C1(C=CC(=NO)C=C1)CC3N(C(C)=O)CC2` (configuration not stated), the EC50 is recorded as > 120 µM (not active).

System in a further test: not listed separately
Nature of the test: luciferase reporter signal suppression in cells – H4 neuroglioma cells, luminescence, dose response (AID 1990).
Details: not given
Format: functional, cell-based.
On to `CCOc1ccc(S(=O)(=O)N2CCC(C(=O)N3CCOCC3)CC2)cc1C`, for which the EC50 was 16.4 µM (active).

As for `Cc1ccc(NC(=O)CN(C)C(S)=NC2CC2)cc1`, the EC50 is on record as > 120 µM (not active).

As to `COc1ccc(/C=N/NC(=O)c2ccncc2)cc1COc1ccc(NC(C)=O)cc1`, the EC50 is on record as > 120 µM (not active). Still for that read-out and setting: with `COc1cc2c3c(c1OC)C1(C=CC(=NO)C=C1)CC3N(C(C)=O)CC2` (configuration not stated) the figure was > 120 µM (not active).

System in another test: not listed separately
Nature of the test: Luminescence Cell-Based Dose Response HTS to Identify Activators of Luciferase Translation or Activity in H4 […] Cells. [Related pubchem assays: 1829 (Project Summary), 1814 (Primary HTS)].
Details: not given
Format: functional.
As for `CC(=O)Oc1ccc(C)cc1-n1nc2ccccc2n1`, the EC50 is 0.445 µM (active). On the same count and under the same terms, with `O=C(COC(=O)c1cccs1)c1ccc2c(c1)OCCO2` the figure was < 0.1 µM (active).

System in the next test: not listed separately
Nature of the test: Luminescence Cell-Based Dose Retest to Confirm Inhibitors of Cancer Stem Cells. [Related pubchem assays (depositor defined):AID2717, AID2721]. In kind it is functional, Homo sapiens. The settings on record: Homo sapiens.
As for `CCCCNC(=O)c1ccc(Cn2c(=S)[nH]c3c([nH]c4ccc(OC)cc43)c2=O)cc1`, the AC50 was 0.687 µM (active).
